Laboratory results published in EP0559571A1, “Thiazolidine-2,4-dione derivatives, process for their preparation and pharmaceutical compositions containing them” (ADIR ET COMPAGNIE, priority 1992, dated 1993).

Columns and labels:
souris ob/ob = experiment: Hypoglycaemic activity in a non-insulin-dependent diabetes (NIDDM) model, ob/ob mouse; format: in vivo; conditions: ob/ob mice; for minimal effective dose: read-out: DMA (dose minimum active montrant une diminution de la glycémie de 10 à 15 %); for Pouvoir hypoglycémiant: at the equi-effective dose of Table 1, 4 days oral, base 100; for Dose provoquant le même effet hypoglycémiant: oral, daily for 4 days, glycaemia at J0 and J5, dose giving the same hypoglycaemic effect (base 100)
From the text: Les animaux (souris ob/ob) sont traités chaque jour, pendant 4 jours, en administrant par voie orale les composés de l'invention en suspension dans une solution à 20 % de gomme du Sénégal. Avant et après traitement, soit à J₀ et à J₅, le sang est prélevé par ponction du sinus orbital et la glycémie est déterminée. Le tableau 1 présente les doses des différents produits à administrer pour obtenir le même effet hypoglycémiant (base 100).
L'étude d'un effet-dose montre que la dose donnant une diminution de la glycémie initiale de 30 % : ED₃₀ pour le composé de l'exemple 2 est inférieure à 0,1 mg/kg alors que celle de la pioglitazone est comprise entre 5 et 10 mg/kg. La dose minimum active : DMA montrant une diminution de la glycémie de 10 à 15 % est de 0,1 mg/kg pour le composé de l'exemple 2 alors qu'elle est de 3 mg/kg pour la pioglitazone.

rats Zucker Fa/Fa mâles = experiment: Model of decreased glucose tolerance with hyperinsulinaemia and hyperlipaemia, male Zucker Fa/Fa rats; format: in vivo; conditions: 5 mg/kg/day oral for 10 days, blood on day 11, control = 100; for AGL (%): free fatty acids; for TG (%): triglycerides
Description: Les animaux (rats Zucker Fa/Fa mâles) sont traités, chaque jour, pendant 10 jours en administrant, par voie orale, les composés de l'invention à la dose de 5 mg/kg/jour en suspension dans une solution à 20 % de gomme du Sénégal. Le 11ème jour, les animaux sont sacrifiés et le sang recueilli afin de déterminer la glycémie, les triglycérides plasmatiques et l'insuline immuno-réactive. D'autre part, les animaux sont pesés avant et après traitement.
Dans ces conditions, les composés de l'invention n'ont pas d'influence sur le taux de glucose circulant mais diminuent le taux de triglycérides et d'acides gras libres plasmatiques ainsi que celui de l'insuline immuno-réactive. Cette activité est égale ou supérieure à celle d'autres dérivés de thiazolidinedione de référence.

[1] = Mus musculus, po, dose-effect study

| SMILES | minimal effective dose (souris ob/ob; [1]) [mg/kg] | ED30 (souris ob/ob; Mus musculus, po, dose-effect study, read-out: ED30 (dose donnant une diminution de la glycémie initiale de 30 %)) [mg/kg] | Pouvoir hypoglycémiant (souris ob/ob) | Dose provoquant le même effet hypoglycémiant (souris ob/ob) | Glycémie (%) (rats Zucker Fa/Fa mâles) | Plasma insuline (%) (rats Zucker Fa/Fa mâles) | AGL (%) (rats Zucker Fa/Fa mâles) | TG (%) (rats Zucker Fa/Fa mâles) |
| --- | --- | --- | --- | --- | --- | --- | --- | --- |
| O=C1NC(=O)C(Cc2ccc3oc(Cc4ccc5ccccc5c4)cc3c2)S1 (racemic) [Exemple 2, 5-[2-(2-Naphtylméthyl)-5-benzofuranylméthyl] thiazolidine-2,4-dione] | 0.1 | < 0.1 | 100 | 5-10 mg/kg/jour | 97 | 50 | 48 | 35 |
| Cc1c(C)c2c(c(C)c1O)CCC(C)(COc1ccc(CC3SC(=O)NC3=O)cc1)O2 (stereo not drawn) [CS 045] |  |  | 100 | 150-200 mg/kg/jour |  |  |  |  |
| CC1(COc2ccc(CC3SC(=O)NC3=O)cc2)CCCCC1 (stereo not drawn) [Ciglitazone] |  |  | 100 | 50-100 mg/kg/jour |  |  |  |  |
| O=C1NC(=O)C(Cc2ccc3c(c2)CC[C@H](Cc2ccccc2)O3)S1 (stereo partly drawn) [Englitazone] |  |  | 100 | 10-20 mg/kg/jour |  |  |  |  |
| CCc1ccc(CCOc2ccc(CC3SC(=O)NC3=O)cc2)nc1 (stereo not drawn) [Pioglitazone] | 3 |  | 100 | 10 mg/kg/jour | 103 | 61 | 52 | 44 |
